Reference: publication PMC7044166 (Scientific Reports, 2020)
Where “and” joins values, the source holds several entries; their conditions need not be identical. Identical values can stand only once. Like-named read-outs stand apart in the source and are kept apart here.

How the values were obtained:
[1] = Pharmacokinetic interaction study of DSV and TAM/TOH after oral single or co-administration to Wistar rats (UPLC-MS/MS of plasma, NCA); assay type: in vivo; details: for AUC(0-inf) / Tmax / half-life / Cmax: male, Wistar, rat, plasma, po, mean ± SD, n = 5; for half-life: read-out: t½ (converted); for Cmax: rat plasma; for change in PK parameters following co-administration compared with single administration: Group III (DSV 50 mg/kg + TAM 10 mg/kg, oral) vs Group I (DSV) and Group II (TAM), only exception tmax of TOH; for M.R.(%) metabolite ratio: ratio of AUC0-∞ of TOH to that of TAM, rats
Experimental: The rats were acclimatized for seven days before starting the experiment. All rats were kept in a well-ventilated room and under standard laboratory conditions; 12 h day/night cycle, average temperature of 25 ± 2 °C, and average relative humidity of 50 ± 2%.
Three group of randomly distributed rats (n = 5) were used to conduct the study. […] Following drug administration, orbital blood samples (0.3 mL) were collected into a series of 1.5 mL polythene heparinized tubes prior to dosing (0 time) and at different time intervals following the drug administration; 0.25, 0.5, 1, 2, 4, 5, 12, 24, and 48 h. Immediate centrifugation (4,500 rpm) of collected blood samples was performed at 4 °C for 30 min. The resulting plasma samples were then stored at −20 °C until the day of analysis. Plasma samples (50 µL) were separately mixed with 50 µL OND, IS, (50 ng/mL), 150 µL of 2% formic acid, and finally completed to 1-mL volume with acetonitrile. Sample preparation was then carried out exactly as mentioned under the experimental section. […] These concentrations were then plotted versus the corresponding withdrawal time.
Plasma concentration-time data were treated by the non-compartmental analysis (NCA) method using PKSolver Add-In Excel 2010. Different PK parameters were calculated. They included maximum drug plasma concentration (Cmax) and the time required to reach the maximum plasma concentration (tmax). Both Cmax and tmax were derived from plasma concentration-time curve simply by visual inspection of the data. Using the PKSover, the elimination rate constant (Kel), the half-life (t1/2), the area under the plasma concentration-time curve from 0 time to the last sampling time t (AUC0-t), the area under the plasma concentration-time curve from 0 time to ∞ (AUC0-∞), and the apparent oral clearance (CL/F) were calculated. Kel was calculated from the slope of the plasma concentration-time curve during the elimination phase and from which t1/2 was derived, t1/2 = 0.693/Kel. The linear trapezoidal rule was used to calculate AUC0-t. The summation of AUC0-t and the extrapolated area from time t to ∞, calculated from the last measured concentration (Clast), result in total AUC from 0 time to ∞, AUC0-∞, AUC0-∞ = AUC0-t + (Clast/Kel). CL/F was calculated by dividing the dose by AUC0-∞. The relative bioavailability (R.B.) was obtained from the ratio of AUC0-∞ of the treated group to AUC0-∞ of the control group.

[2] = Stability of DSV, TAM and TOH in rat plasma under storage and treatment conditions; assay type: in vitro ADME; details: six determinations; for recovery at 56 h / recovery at 6 h / recovery / recovery at 30 days: Wistar, rat, rat plasma; for recovery at 56 h: rat plasma (prepared QC samples in the auto-injector), 10 °C, read-out: Auto-sampler stability, mean recovery (%) ± RSD; for recovery at 6 h / recovery / recovery at 30 days: rat plasma (spiked QC samples); for recovery at 6 h: 25 °C, read-out: Short-term stability, mean recovery (%) ± RSD; for recovery / recovery at 30 days: −30 °C; for recovery: 3 cycles, read-out: Freeze-thaw stability, mean recovery (%) ± RSD; for recovery at 30 days: read-out: Long-term stability, mean recovery (%) ± RSD; for recovery at 3 months: analyte solutions, 4 °C, read-out: Refrigerator stability, mean recovery (%) ± RSD
Experimental: This ensures that no detectable degradation was noticed and that all analytes were stable under the studied conditions. The analytes’ solutions were also stable when kept refrigerated at 4 °C for 3 months or at room temperature for up to 6 h.
Samples were subjected to different storage conditions. Auto-sampler stability was assessed by leaving prepared samples in the auto-injector (10 °C, 56 h) before the injection. Short-term (bench top) stability was evaluated by analyzing samples after being stored at room temperature (25 °C, 6 h). On the other hand, long-term stability was assessed by analyzing samples which had been frozen before analysis (−30 °C, 30 days). Stability of samples was also assessed following three freeze–thaw cycles (frozen at −30 °C, thawed at 25 °C).

[3] = set-up: method as in earlier work; details: cited from earlier work
[4] = tested on: estrogen-dependent cell proliferation; details: relative to TAM, cited from earlier work
[5] = oral co-administration of DSV 50 mg/kg and TAM 10 mg/kg (TOH as metabolite of TAM)
[6] = single oral administration, DSV 50 mg/kg or TAM 10 mg/kg (TOH as metabolite of TAM)
[7] = high concentration level (800, 400, 400 ng/mL for DSV, TAM, TOH)

SMILES	AUC(0-inf) [1, 5]	Tmax [1, 5]	half-life [1, 5]	Cmax [1, 5]	AUC(0-inf) [1, 6]	Tmax [1, 6]	half-life [1, 6]	Cmax [1, 6]	recovery at 56 h [2, 7]	recovery at 56 h ([2]; low concentration level)	recovery at 6 h [2, 7]	recovery at 6 h ([2]; low concentration level)	recovery ([2]; low concentration level)	recovery at 30 days [2, 7]	recovery at 30 days ([2]; low concentration level)	recovery at 3 months [2, 7]	recovery at 3 months ([2]; low concentration level)	change in PK parameters following co-administration compared with single administration [1]	further results
CC/C(=C(\c1ccccc1)c1ccc(OCCN(C)C)cc1)c1ccccc1 [TAM, Tamoxifen]	3510 ± 464 ng·h/mL	3.03 ± 0.66 h	17.7 ± 3.42 h	288 ± 81 ng/mL	3880 ± 407 ng·h/mL	2.03 ± 0.95 h	15.8 ± 5.18 h	307 ± 109 ng/mL	93.5%	98.2%	96.8%	98.2%	96.1%	97.3%	99.7%	96.6%	98.9%		
COc1c(-c2ccc3cc(NS(C)(=O)=O)ccc3c2)cc(-n2ccc(=O)[nH]c2=O)cc1C(C)(C)C [DSV, Dasabuvir]	4660 ± 687 ng·h/mL	4.98 ± 0.61 h	19.7 ± 5.41 h	159 ± 49 ng/mL	4270 ± 754 ng·h/mL	4.95 ± 1.07 h	17.9 ± 5.93 h	144 ± 26.5 ng/mL	98.5%	95.5%	95%	96.3%	98.5%	98.8%	96.8%	97.6%	96.2%	no significant changes	pKa (pK1) [3]: 8.2; pKa (pK2) [3]: 9.2
CC/C(=C(\c1ccc(O)cc1)c1ccc(OCCN(C)C)cc1)c1ccccc1 [TOH, 4-hydroxy tamoxifen]	4550 ± 913 ng·h/mL	5.03 ± 0.66 h	19.7 ± 1.41 h	164 ± 54.5 ng/mL	4730 ± 774 ng·h/mL	2.03 ± 0.95 h	28.8 ± 1.98 h	172 ± 54 ng/mL	95.2%	99.7%	98.9%	96.9%	97.5%	95.8%	99%	97%	98%	no significant changes	M.R.(%) metabolite ratio ([1]; oral co-administration of DSV 50 mg/kg and TAM 10 mg/kg): 129.65 ± 10.88%; M.R.(%) metabolite ratio ([1]; single oral TAM 10 mg/kg): 121.86 ± 11%; reported estrogenic properties, times more potent than TAM ([4]; at least, reported): 30–100 times; times more potent than TAM in inhibiting estrogen-dependent cell proliferation [4]: 30 to 100 times; pka [3]: 8.66 and 9.45
